# How the values were obtained:
# [1] = test system: S. cerevisiae yeast cells (YMR4, INVSC); test: Yeast growth in suspension with ATP and drug (turbidity); type: cell-based, Saccharomyces cerevisiae; conditions: 100 mM ATP, 48 hours
# Procedure: Cell lines: Cell lines were the same as those described above in Example 4 and 5. YMR4 MDRI is the phosphatase mutant yeast strain overexpressing AtPGP-1; YMR4 pVT011 contains vector alone; INVSC MDRI is the wild-type yeast strain overexpressing AtPGP-1; and INVSC pVT101 contains vector alone.
# Selection in drug: To create drug resistant yeast strains, all four cell lines were grown up in the presence of 500 ng/ml of cycloheximide, and transferred to other cycloheximide containing plates after a period of four to six days. This transfer of cell lines and subculturing continued such that the yeast cells grew in the presence of cycloheximide for a period of at least a month. Cells cultured in media alone: To create cell lines that had not been preselected for their ability to grow in drug, yeast strains were grown on plates containing YNB (Bio101, Vista, Calif.) without uracil (-URA) to maintain the presence of the vector (which supplies URA) without any drugs added.
# Growth of cells in suspension for ATP and drug selection experiments: Cells were transferred into 5 ml YNB-URA liquid media for turbidity measurements. All cell lines (both non-drug selected and drug-selected) were grown in media with the addition of either nothing, 500 ng/ml cycloheximide, 100 mM ATP, or 500 ng/ml cycloheximide and 100 mM ATP. Turbidity readings were taken after 48 hours.
# SW-13Vb003 = test: IC50 test (NTT), 96 well plate, vinblastine resistant line; type: cell-based; conditions: 96 h, read-out: IC50 (sensitive at)
# Procedure: (§1) In order to determine the effect of ectophosphatase inhibitors on tumor cells resistant to a chemotherapeutic agent, 2 […] tumor cell lines were tested, a vinblastine resistant line (SW-13Vb003) and its vinblastine sensitive parent line, SW-13. A standard 4 day incubation at 37° C. and 5% CO2 was used. IC50 tests (NTT) were done using standard methodology in 96 well plate format with inhibitor concentrations ranging from 0-90 μg/ml (DMEM media). […] For NGXT194, SW-13 was sensitive at 20 μg/ml, whereas the vinblastine resistant line SW-13Vb003 was sensitive at 10 μg/ml. For NGXT196, SW-13 was sensitive at 30 μg/ml, whereas the vinblastine resistant line SW-13Vb003 was sensitive at 10 μg/ml. For NGXT1915, SW-13 was sensitive at 50 μg/ml, whereas the vinblastine resistant line SW-13Vb003 was sensitive at 20 μg/ml.
# SW-13 = test: IC50 test (NTT), 96 well plate, vinblastine sensitive parent line; type: cell-based; conditions: Homo sapiens, SW13, 96 h, read-out: IC50 (sensitive at)
# Procedure: as §1
# [2] = test system: ectoapyrase activity associated with the plasma membrane of cholinergic nerve terminal of Torpedo mannorata electric organs; conditions: Torpedo electric organ nerve terminal plasma membrane; cited from earlier work
# YMR4 yeast [3] = test: Yeast growth in suspension, adenosine salvage pathway experiments (turbidity); type: cell-based, Saccharomyces cerevisiae; conditions: added to media with cycloheximide, 72 hours
# Procedure: Selection in drug: To create drug resistant yeast strains, all four cell lines were grown up in the presence of 500 ng/ml of cycloheximide, and transferred to other cycloheximide containing plates after a period of four to six days. This transfer of cell lines and subculturing continued such that the yeast cells grew in the presence of cycloheximide for a period of at least a month.
# Growth of cell lines in suspension for salvage pathway experiments: All cell lines were grown in liquid media either containing drug (for the drug selected lines) or not containing drug (for the non-drug selected lines). When the cultures reached a turbidity of 1.00 as measured at a wavelength of 600 in a spectrophotometer (OD600=1.00), 10 μl of each culture was then removed and placed in either media with nothing added, 3 mM potassium phosphate; 3 mM adenosine; 9 mM potassium phosphate and 3 mM adenosine (for controls); potassium phosphate and cycloheximide; adenosine and cycloheximide; adenosine, cycloheximide, and potassium phosphate. Cell cultures were further grown for 72 hours, and their turbidity was determined by OD600 readings on a spectrophotometer.
# [4] = test system: wild-type Arabidopsis thaliana plants; test: Arabidopsis germination selection assay, wild-type plants; type: in vivo; conditions: cycloheximide 500 ng/ml, phosphatase inhibitor 1 mM, 10-20 days
# Procedure: Plant growth: Arabidopsis thaliana seeds were sown in a solid germination media containing MS salt, 2% sucrose, 0.8% agar, and vitamins (Valvekens et al., 1992). For selection assays, cycloheximide was spread on the media to achieve a final concentration of […]. Plant growth was measured by germination percentage after 6-30 days.
# (§2) Plant Growth: Arabidopsis seeds were sown in a solid germination media containing MS salts (Sigma Chemical, St. Louis, Mo.), 2% sucrose, 0.8% agar, and vitamins (Valvekens et al., 1992). For selection assays, one of the following, or a combination of both, was added to media (cooled to less than 50° C. before adding) immediately prior to pouring into plates: cycloheximide at a final concentration of 500 ng/ml; α,β-methyleneadenosine 5′-diphosphate at a final concentration of 1 mM. Plant growth was measured by germination percentage after 10-20 days.
# All other materials and methods were discussed above in Example 4.
# INVSCI yeast = test: Yeast drug selection growth assay, wild-type strain; type: cell-based, Saccharomyces cerevisiae; conditions: cycloheximide 500 ng/ml
# Description: (§3) Expression of AtPGP-1 in yeast: The AtPGP-1 cDNA (Arabidopsis thaliana MDR gene, accession #X61370) was subcloned into pVT101 downstream of the ADH promoter to create the AtPGP-1/pVT101 construct. AtPGP-1/pVT101 and pVT101 were transformed into Saccharomyces cerevisiae INVSCI (genotype: MATa, his3-Δ1, leu2, trpl-289, ura3-52) and YMR4 (genotype: MATαhis3-11,15, leu2-3, 112ura3Δ5, can Res pho5, 3::ura3A1) by a PEG lithium acetate procedure (Eble, 1992) and selected on uracil dropout medium.
# (§4) Yeast Growth: Yeast were grown at 30° C. under conditions of constant selection for uracil auxotrophy. YNB (Bio101, Vista, Calif.) supplemented with CSM (uracil dropout) and 2% glucose was used to grow strains having pVT101 constructs. Cycloheximide (Sigma Chemical, St. Louis, Mo.) was added to liquid media or spread on solid media to achieve a final concentration of 500 ng/ml. Nigencm (Sigma Chemical, St. Louis, Mo.) was added to liquid media or spread on solid media to achieve a final concentration of 25 μg/ml. Yeast strains used in cycloheximide selection assays were always propagated in the presence of the cycloheximide on plates and then streaked onto new plates containing drug or no drug, such that induced resistance existed in each strain at the time of the start of the assay. […] Yeast selection assays in liquid media were quantitated by turbidity as measured by absorbance at OD600.
# YMR4 yeast [5] = test: Yeast drug selection growth assay, phosphatase deficient mutant; type: cell-based, Saccharomyces cerevisiae
# Description: as §3, §4
# [6] = test system: AtPGP-1 overexpressing (MDR OE) Arabidopsis thaliana plants; type: in vivo; conditions: AtPGP-1 overexpressing plants; cycloheximide 500 ng/ml, phosphatase inhibitor 1 mM; 10-20 days
# Description: Similar methods were employed to express AtPGP-1 in Arabidopsis thaliana plants with the following modifications. […] This plasmid was then transformed into A. tumefaciens as described above, which was used to infect root calli to produce transgenic plants expressing AtPGP-1.
# as §2
smiles,measurement,setting,value
Nc1ncnc2c1ncn2[C@@H]1O[C@H](COP(=O)(O)OP(=O)(O)OP(=O)(O)O)[C@@H](O)[C@H]1O [ATP],yeast growth in high levels of ATP,[1]; cells not previously selected in drug,able to grow
same,yeast growth in high levels of ATP,"[1]; cells previously grown in drug (resistant), not overexpressing AtPGP-1",not able to grow
Cc1ccc(O)c(/C=N/NC(=O)Cc2cccc3ccccc23)c1 [NGXT194],IC50,SW-13Vb003,10 µg/mL
same,IC50,SW-13,20 µg/mL
O=C(Cc1cccc2ccccc12)N/N=C/c1ccc(Br)cc1 [NGXT196],IC50,SW-13Vb003,10 µg/mL
same,IC50,SW-13,30 µg/mL
C/C(=N\NC(=O)c1cccc(C)c1)c1ccc2ccccc2c1 [NGXT1915],IC50,SW-13Vb003,20 µg/mL
same,IC50,SW-13,50 µg/mL
"Cc1ccc(C(=O)Nc2ccc(S(=O)(=O)O)c3cc(S(=O)(=O)O)cc(S(=O)(=O)O)c23)cc1NC(=O)c1cccc(NC(=O)Nc2cccc(C(=O)Nc3cc(C(=O)Nc4ccc(S(=O)(=O)O)c5cc(S(=O)(=O)O)cc(S(=O)(=O)O)c45)ccc3C)c2)c1 [Suramin, 8,8′[Carbonylbis[imino-3,1-phenylenecarbonylimino(4-methyl-3,1-phenylene)carbonylimino]]bis-1,3,5-naphthalenetrisulfonic acid]",inhibition of ectoapyrase activity,[2],potent non-competitive inhibitor
Nc1ncnc2c1ncn2[C@@H]1O[C@H](CO)[C@@H](O)[C@H]1O [adenosine],effect on resistance of yeast cells to cycloheximide,YMR4 yeast [3],did not enhance resistance
C[C@@H]1C[C@@H]([C@H](O)CC2CC(=O)NC(=O)C2)C(=O)[C@@H](C)C1 [cycloheximide],germination rate,[4],2%
same,yeast growth in drug,INVSCI yeast,did grow
same,yeast growth in drug,"YMR4 yeast [5]; YMR4 mutant, cycloheximide 500 ng/ml",did not grow
same,germination rate,[6],50%
CO[C@@H]1C[C@@H](C[C@H]2CC[C@H](C)[C@H]([C@@H](C)C(=O)O)O2)O[C@]2(O[C@](C)([C@H]3CC[C@@](C)([C@@H]4O[C@@H]([C@H]5O[C@@](O)(CO)[C@H](C)C[C@@H]5C)C[C@@H]4C)O3)C[C@H]2C)[C@@H]1C [nigericin],yeast growth in drug,"YMR4 yeast [5]; YMR4 containing vector alone, nigericin 25 μg/ml",reduced growth
"Nc1ncnc2c1ncn2[C@@H]1O[C@H](COP(=O)(O)CP(=O)(O)O)[C@@H](O)[C@H]1O [phosphatase inhibitor, α,β-methyleneadenosine 5′-diphosphate]",germination rate,[4],90%
same,germination rate,[6],83%
"O=P(O)(O)O [phosphate, potassium phosphate]",effect on resistance of yeast cells to cycloheximide,YMR4 yeast [3],did not enhance resistance

# From US20060276339A1, “Methods and compositions for increasing the efficacy of biologically-active ingredients” (priority 2002, published 2006)
